Results published in the supplement of paper PMC10307832.

Legend:
Test in all cases: relative viability (nuclei count vs DMSO), 5 days (fraction); higher = more cells survive
IA-LM = tested on: IA-LM
Summary of the method: (§1)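 For relative viability, nuclei counts in treated wells were divided by those in vehicle wells. Lung cancer cell lines had been pin-tool dosed in 1536-well plates the day after seeding and cultured for 5 days, then fixed and stained in one step (final 0.05% Triton X-100, 1% formaldehyde, 1 ug/ml Hoechst) and imaged at 4×. Doses were one drug alone or a fixed anchor-drug dose plus five library-drug doses (not always all listed) in √10 steps, and values are duplicate-plate medians.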

NCI-H520 = tested on: NCI-H520
Summary of the method: as §1

EBC-1 = tested on: EBC-1
Summary of the method: as §1

NCI-H1299 = tested on: NCI-H1299
Summary of the method: as §1

Calu-6 = tested on: Calu-6
Summary of the method: as §1

NCI-H838 = tested on: NCI-H838
Summary of the method: as §1

NCI-H1651 = tested on: NCI-H1651
Summary of the method: as §1

A549 = tested on: A549
Summary of the method: as §1

NCI-H1703 = tested on: NCI-H1703
Summary of the method: as §1

RERF-LC-KJ = tested on: RERF-LC-KJ
Summary of the method: as §1

NCI-H1944 = tested on: NCI-H1944
Summary of the method: as §1

NCI-H650 = tested on: NCI-H650
Summary of the method: as §1

Q: What does the source list for O=c1cc(-c2cccc3c2Sc2ccccc2S3)oc(N2CCOCC2)c1 + CC1(C)CCC(c2ccc(Cl)cc2)=C(CN2CCN(c3ccc(C(=O)NS(=O)(=O)c4ccc(N[C@H](CCN5CCOCC5)CSc5ccccc5)c(S(=O)(=O)C(F)(F)F)c4)cc3)CC2)C1 [Navitoclax] (partner 0.5 µM)?
A: relative viability (IA-LM; first compound 0.08 µM): 0.847; relative viability (IA-LM; first compound 0.253 µM): 1.06; relative viability (IA-LM; first compound 0.8 µM): 0.815; relative viability (IA-LM; first compound 2.53 µM): 0.856; relative viability (IA-LM; first compound 8 µM): 0.963; relative viability (NCI-H520; first compound 0.08 µM): 0.992; relative viability (NCI-H520; first compound 0.253 µM): 1.1; relative viability (NCI-H520; first compound 0.8 µM): 1.04; relative viability (NCI-H520; first compound 2.53 µM): 0.993; relative viability (NCI-H520; first compound 8 µM): 1.2; relative viability (EBC-1; first compound 0.08 µM): 0.401; relative viability (EBC-1; first compound 0.253 µM): 0.376; relative viability (EBC-1; first compound 0.8 µM): 0.401; relative viability (EBC-1; first compound 2.53 µM): 0.362; relative viability (EBC-1; first compound 8 µM): 0.335; relative viability (NCI-H1299; first compound 0.08 µM): 1.08; relative viability (NCI-H1299; first compound 0.253 µM): 1.08; relative viability (NCI-H1299; first compound 0.8 µM): 1.04; relative viability (NCI-H1299; first compound 2.53 µM): 1.04; relative viability (NCI-H1299; first compound 8 µM): 1.04; relative viability (Calu-6; first compound 0.08 µM): 0.818; relative viability (Calu-6; first compound 0.253 µM): 0.765; relative viability (Calu-6; first compound 0.8 µM): 0.968; relative viability (Calu-6; first compound 2.53 µM): 0.725; relative viability (Calu-6; first compound 8 µM): 0.858; relative viability (NCI-H838; first compound 0.08 µM): 1.11; relative viability (NCI-H838; first compound 0.253 µM): 1.64; relative viability (NCI-H838; first compound 0.8 µM): 0.944; relative viability (NCI-H838; first compound 2.53 µM): 1.02; relative viability (NCI-H838; first compound 8 µM): 1.09; relative viability (NCI-H1651; first compound 0.08 µM): 1.04; relative viability (NCI-H1651; first compound 0.253 µM): 1.42; relative viability (NCI-H1651; first compound 0.8 µM): 0.852; relative viability (NCI-H1651; first compound 2.53 µM): 0.994; relative viability (NCI-H1651; first compound 8 µM): 1.14; relative viability (A549; first compound 0.08 µM): 1.14; relative viability (A549; first compound 0.253 µM): 1.51; relative viability (A549; first compound 0.8 µM): 1.47; relative viability (A549; first compound 2.53 µM): 1.13; relative viability (A549; first compound 8 µM): 1.37; relative viability (NCI-H1703; first compound 0.253 µM): 1.22; relative viability (NCI-H1703; first compound 0.8 µM): 1.35; relative viability (NCI-H1703; first compound 2.53 µM): 1.05; relative viability (NCI-H1703; first compound 8 µM): 1.05; relative viability (RERF-LC-KJ; first compound 0.08 µM): 0.768; relative viability (RERF-LC-KJ; first compound 0.253 µM): 0.711; relative viability (RERF-LC-KJ; first compound 0.8 µM): 0.934; relative viability (RERF-LC-KJ; first compound 2.53 µM): 0.798; relative viability (RERF-LC-KJ; first compound 8 µM): 0.856; relative viability (NCI-H1944; first compound 0.08 µM): 1; relative viability (NCI-H1944; first compound 0.253 µM): 1.11; relative viability (NCI-H1944; first compound 0.8 µM): 1.06; relative viability (NCI-H1944; first compound 8 µM): 1.16

Q: Which relative viability (IA-LM; first compound 0.01 µM) does the source give for O=c1cc(N2CCOCC2)oc2c(-c3cccc4c3sc3ccccc34)cccc12 + CC(C)C[C@H](NC(=O)[C@H](Cc1ccccc1)NC(=O)c1cnccn1)B(O)O [Bortezomib] (partner 0.002 µM) here?
A: Its relative viability is 0.837.

Q: What about the relative viability (IA-LM; first compound 0.03162 µM) of the same compound?
A: The relative viability was 0.904.

Q: And the relative viability (IA-LM; first compound 0.1 µM)?
A: Its relative viability is 0.784.

Q: And the relative viability (IA-LM; first compound 0.3162 µM)?
A: The relative viability was 0.896.

Q: And the relative viability (IA-LM; first compound 1 µM)?
A: The relative viability was 0.74.

Q: What about the relative viability (NCI-H520; first compound 0.01 µM) of the same compound?
A: The relative viability was 0.66.

Q: What about the relative viability (NCI-H520; first compound 0.03162 µM) of the same compound?
A: Its relative viability is 0.446.

Q: And the relative viability (NCI-H520; first compound 0.1 µM)?
A: The relative viability was 0.472.

Q: What about the relative viability (NCI-H520; first compound 0.3162 µM) of the same compound?
A: The relative viability was 0.64.

Q: And the relative viability (NCI-H520; first compound 1 µM)?
A: The relative viability was 0.752.

Q: And the relative viability (EBC-1; first compound 0.01 µM)?
A: The relative viability was 0.569.

Q: What about the relative viability (EBC-1; first compound 0.03162 µM) of the same compound?
A: The relative viability was 0.538.

Q: What about the relative viability (EBC-1; first compound 0.1 µM) of the same compound?
A: The relative viability was 0.505.

Q: What about the relative viability (EBC-1; first compound 0.3162 µM) of the same compound?
A: Its relative viability is 0.555.

Q: What about the relative viability (EBC-1; first compound 1 µM) of the same compound?
A: The relative viability was 0.49.

Q: What about the relative viability (NCI-H1299; first compound 0.01 µM) of the same compound?
A: Its relative viability is 1.04.

Q: What about the relative viability (NCI-H1299; first compound 0.03162 µM) of the same compound?
A: The relative viability was 1.01.

Q: What about the relative viability (NCI-H1299; first compound 0.1 µM) of the same compound?
A: The relative viability was 0.984.

Q: What about the relative viability (NCI-H1299; first compound 0.3162 µM) of the same compound?
A: The relative viability was 1.03.

Q: What about the relative viability (NCI-H1299; first compound 1 µM) of the same compound?
A: Its relative viability is 1.08.

Q: And the relative viability (Calu-6; first compound 0.01 µM)?
A: The relative viability was 1.04.

Q: And the relative viability (Calu-6; first compound 0.03162 µM)?
A: The relative viability was 1.05.

Q: And the relative viability (Calu-6; first compound 0.1 µM)?
A: The relative viability was 1.01.

Q: What about the relative viability (Calu-6; first compound 0.3162 µM) of the same compound?
A: The relative viability was 0.969.

Q: And the relative viability (Calu-6; first compound 1 µM)?
A: The relative viability was 1.03.

Q: And the relative viability (NCI-H838; first compound 0.01 µM)?
A: Its relative viability is 0.779.

Q: And the relative viability (NCI-H838; first compound 0.03162 µM)?
A: Its relative viability is 0.673.

Q: What about the relative viability (NCI-H838; first compound 0.1 µM) of the same compound?
A: The relative viability was 0.805.

Q: And the relative viability (NCI-H838; first compound 0.3162 µM)?
A: Its relative viability is 0.813.

Q: What about the relative viability (NCI-H838; first compound 1 µM) of the same compound?
A: Its relative viability is 0.908.

Q: And the relative viability (NCI-H1651; first compound 0.01 µM)?
A: Its relative viability is 0.897.

Q: What about the relative viability (NCI-H1651; first compound 0.03162 µM) of the same compound?
A: Its relative viability is 0.991.

Q: And the relative viability (NCI-H1651; first compound 0.1 µM)?
A: Its relative viability is 0.952.

Q: And the relative viability (NCI-H1651; first compound 0.3162 µM)?
A: Its relative viability is 0.939.

Q: And the relative viability (NCI-H1651; first compound 1 µM)?
A: The relative viability was 0.871.

Q: And the relative viability (NCI-H650; first compound 0.01 µM)?
A: Its relative viability is 0.845.

Q: What about the relative viability (NCI-H650; first compound 0.03162 µM) of the same compound?
A: The relative viability was 0.837.

Q: What about the relative viability (NCI-H650; first compound 0.3162 µM) of the same compound?
A: The relative viability was 1.12.

Q: What about the relative viability (NCI-H650; first compound 1 µM) of the same compound?
A: The relative viability was 0.632.

Q: What about the relative viability (NCI-H1703; first compound 0.01 µM) of the same compound?
A: Its relative viability is 0.333.

Q: What about the relative viability (NCI-H1703; first compound 0.03162 µM) of the same compound?
A: The relative viability was 0.274.

Q: And the relative viability (NCI-H1703; first compound 0.1 µM)?
A: The relative viability was 0.356.

Q: What about the relative viability (NCI-H1703; first compound 0.3162 µM) of the same compound?
A: Its relative viability is 0.403.

Q: And the relative viability (NCI-H1703; first compound 1 µM)?
A: The relative viability was 0.296.

Q: And the relative viability (RERF-LC-KJ; first compound 0.01 µM)?
A: The relative viability was 1.1.

Q: What about the relative viability (RERF-LC-KJ; first compound 0.03162 µM) of the same compound?
A: The relative viability was 1.12.

Q: And the relative viability (RERF-LC-KJ; first compound 0.1 µM)?
A: The relative viability was 1.13.

Q: And the relative viability (RERF-LC-KJ; first compound 0.3162 µM)?
A: The relative viability was 1.22.

Q: What about the relative viability (RERF-LC-KJ; first compound 1 µM) of the same compound?
A: The relative viability was 1.09.
